From patent US9975907B2, “Pyrimidinones as PI3K inhibitors” (Incyte Corporation, priority 2009, dated 2018)
Counter-ions that a name gives are not always drawn.

Molecular target: PI3Kδ (p110δ/p85α) (Homo sapiens (Human), UniProt O00329)
Test: PI3Kδ Scintillation Proximity Assay (Assay A3)
Assay type: biochemical
Conditions: column b, Assay A3 (SPA), 20 μM ATP
Excerpt: [γ-^33P]ATP (10 mCi/mL) was purchased from Perkin-Elmer (Waltham, Mass.). Lipid kinase substrate, D-myo-Phosphatidylinositol 4,5-bisphosphate (PtdIns(4,5)P2)D (+)-sn-1,2-di-O-octanoylglyceryl, 3-O-phospho linked (PIP2), CAS 204858-53-7, was purchased from Echelon Biosciences (Salt Lake City, Utah). PI3Kδ (p110δ/p85α) was purchased from Millipore (Bedford, Mass.). ATP, MgCl2, DTT, EDTA, MOPS and CHAPS were purchased from Sigma-Aldrich (St. Louis, Mo.). Wheat Germ Agglutinin (WGA) YSi SPA Scintillation Beads was purchased from GE healthcare life sciences (Piscataway, N.J.).
The kinase reaction was conducted in polystyrene 384-well matrix white plate from Thermo Fisher Scientific in a final volume of 25 μL. Inhibitors were first diluted serially in DMSO and added to the plate wells before the addition of other reaction components. The final concentration of DMSO in the assay was 0.5%. The PI3K assays were carried out at room temperature in 20 mM MOPS, pH 6.7, 10 mM MgCl2, 5 mM DTT and CHAPS 0.03%. Reactions were initiated by the addition of ATP, the final reaction mixture consisted of 20 μM PIP2, 20 μM ATP, 0.2 μCi [γ-^33P] ATP, 4 nM PI3Kδ. Reactions were incubated for 210 min and terminated by the addition of 40 μL SPA beads suspended in quench buffer: 150 mM potassium phosphate pH 8.0, 20% glycerol. 25 mM EDTA, 400 μM ATP. The final concentration of SPA beads was 1.0 mg/mL. After the plate sealing, plates were shaken overnight at room temperature and centrifuged at 1800 rpm for 10 minutes, the radioactivity of the product was determined by scintillation counting on Topcount (Perkin-Elmer). IC50 determination was performed by fitting the curve of percent control activity versus the log of the inhibitor concentration using the GraphPad Prism 3.0 software.

PI3Kδ (p110δ/p85α), sequence (O00329 whole entry, species assumed): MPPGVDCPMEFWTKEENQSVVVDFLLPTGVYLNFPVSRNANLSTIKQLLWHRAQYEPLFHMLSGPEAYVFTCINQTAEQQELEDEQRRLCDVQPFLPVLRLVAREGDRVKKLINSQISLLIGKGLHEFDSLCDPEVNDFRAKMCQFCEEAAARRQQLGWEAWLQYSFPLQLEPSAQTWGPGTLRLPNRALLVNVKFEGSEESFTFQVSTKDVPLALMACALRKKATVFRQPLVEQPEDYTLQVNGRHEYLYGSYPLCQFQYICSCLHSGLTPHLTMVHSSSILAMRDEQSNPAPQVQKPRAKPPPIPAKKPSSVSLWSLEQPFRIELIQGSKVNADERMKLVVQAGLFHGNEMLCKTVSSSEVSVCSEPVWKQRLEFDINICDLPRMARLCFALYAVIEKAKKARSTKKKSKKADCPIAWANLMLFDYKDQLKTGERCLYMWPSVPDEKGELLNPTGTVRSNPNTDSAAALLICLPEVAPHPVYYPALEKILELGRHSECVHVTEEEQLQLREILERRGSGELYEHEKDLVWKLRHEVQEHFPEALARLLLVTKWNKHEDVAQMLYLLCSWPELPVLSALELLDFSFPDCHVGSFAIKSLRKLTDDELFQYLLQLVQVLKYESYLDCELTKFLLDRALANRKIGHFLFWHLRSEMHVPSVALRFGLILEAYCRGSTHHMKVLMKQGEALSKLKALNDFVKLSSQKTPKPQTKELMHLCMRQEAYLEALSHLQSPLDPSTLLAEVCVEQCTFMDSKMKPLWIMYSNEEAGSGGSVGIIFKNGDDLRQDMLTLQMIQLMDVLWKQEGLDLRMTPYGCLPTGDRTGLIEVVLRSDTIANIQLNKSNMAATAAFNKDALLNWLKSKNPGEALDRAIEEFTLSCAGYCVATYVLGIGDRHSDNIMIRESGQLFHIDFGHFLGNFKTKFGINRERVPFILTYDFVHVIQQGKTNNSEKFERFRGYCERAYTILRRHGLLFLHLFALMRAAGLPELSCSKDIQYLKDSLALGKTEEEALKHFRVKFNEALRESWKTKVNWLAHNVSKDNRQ
PI3Kδ (p110δ/p85α), sequence (P27986 whole entry partner, species assumed): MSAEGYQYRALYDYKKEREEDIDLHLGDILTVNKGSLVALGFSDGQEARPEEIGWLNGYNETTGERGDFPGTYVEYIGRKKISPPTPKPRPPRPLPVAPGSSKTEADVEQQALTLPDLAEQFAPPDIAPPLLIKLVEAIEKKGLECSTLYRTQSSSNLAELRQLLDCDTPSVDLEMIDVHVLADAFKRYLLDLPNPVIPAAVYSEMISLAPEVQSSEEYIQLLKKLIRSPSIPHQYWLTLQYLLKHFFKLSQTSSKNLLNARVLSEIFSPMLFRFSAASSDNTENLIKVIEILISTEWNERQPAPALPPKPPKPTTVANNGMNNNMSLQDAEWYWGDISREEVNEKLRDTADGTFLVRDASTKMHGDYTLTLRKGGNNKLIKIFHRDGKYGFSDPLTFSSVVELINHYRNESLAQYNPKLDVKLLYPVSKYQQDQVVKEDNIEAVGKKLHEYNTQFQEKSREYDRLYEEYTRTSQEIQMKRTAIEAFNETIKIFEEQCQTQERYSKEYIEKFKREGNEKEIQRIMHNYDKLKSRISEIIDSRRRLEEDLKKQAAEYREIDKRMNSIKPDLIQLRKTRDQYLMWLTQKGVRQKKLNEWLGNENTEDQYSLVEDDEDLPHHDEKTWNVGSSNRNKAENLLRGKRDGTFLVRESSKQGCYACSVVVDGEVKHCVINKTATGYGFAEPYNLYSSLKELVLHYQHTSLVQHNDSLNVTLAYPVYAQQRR

Row | SMILES | IC50
1 | Cc1cccc2nc(C(C)Nc3ncnc4[nH]cnc34)c(-c3ccccc3)c(=O)n12 (stereo not shown) [Example 49, 6-Methyl-3-phenyl-2-[1-(9H-purin-6-ylamino)ethyl]-4H-pyrido[1,2-a]pyrimidin-4-one trifluoroacetic acid salt] | < 50 nM
2 | Cc1cccc2nc(C(C)Nc3ncnc4[nH]cnc34)c(-c3cccc(C#N)c3)c(=O)n12 (stereo not shown) [Example 83, 3-{6-Methyl-4-oxo-2-[1-(9H-purin-6-ylamino)ethyl]-4H-pyrido[1,2-a]pyrimidin-3-yl}benzonitrile trifluoroacetic acid salt] | 100 to 500 nM
3 | Cc1csc2nc(C(C)Nc3ncnc4[nH]cnc34)c(-c3cncc(F)c3)c(=O)n12 (stereo not shown) [Example 42, 6-(5-fluoropyridin-3-yl)-3-methyl-7-[1-(9H-purin-6-ylamino)ethyl]-5H-[1,3]thiazolo[3,2-a]pyrimidin-5-one trifluoroacetic acid salt] | 100 to 500 nM
4 | Cc1cccc2nc(C(C)Nc3nc(N)nc4[nH]cnc34)c(-c3ccccc3F)c(=O)n12 (stereo not shown) [Example 60, 2-{1-[(2-Amino-9#-purin-6-yl)amino]ethyl}-3-(2-fluorophenyl)-6-methyl-4H-pyrido[1,2-a]pyrimidin-4-one trifluoroacetic acid salt] | < 50 nM
5 | Cc1csc2nc(C(C)Nc3nc(N)nc4[nH]cnc34)c(-c3ccccc3F)c(=O)n12 (stereo not shown) [Example 33, 7-{1-[(2-amino-9H-purin-6-yl)amino]ethyl}-6-(2-fluorophenyl)-3-methyl-5H-[1,3]thiazolo[3,2-a]pyrimidin-5-one trifluoroacetic acid salt] | < 50 nM
6 | COc1cccc(-c2c(C(C)Nc3ncnc4[nH]cnc34)nc3cccc(C)n3c2=O)c1 (stereo not shown) [Example 65, 3-(3-Methoxyphenyl)-6-methyl-2-[1-(9H-purin-6-ylamino)ethyl]-4H-pyrido[1,2-a]pyrimidin-4-one trifluoroacetic acid salt] | < 50 nM
7 | Cc1cccc2nc(C(C)Nc3ncnc4[nH]cnc34)c(-c3cccc(F)c3F)c(=O)n12 (stereo not shown) [Example 66, 3-(2,3-Difluorophenyl)-6-methyl-2-[1-(9H-purin-6-ylamino)ethyl]-4H-pyrido[1,2-a]pyrimidin-4-one trifluoroacetic acid salt] | < 50 nM
8 | CCc1cccc2nc(C(C)Nc3ncnc4[nH]cnc34)c(-c3ccc(F)cc3)c(=O)n12 (stereo not shown) [Example 78, 6-Ethyl-3-(4-fluorophenyl)-2-[1-(9H-purin-6-ylamino)ethyl]-4H-pyrido[1,2-a]pyrimidin-4-one trifluoroacetic acid salt] | < 50 nM
9 | CC(Nc1ncnc2[nH]cnc12)c1nc2ccccn2c(=O)c1-c1cc(F)cc(F)c1 (stereo not shown) [Example 79, 3-(3,5-Difluorophenyl)-2-[1-(9H-purin-6-ylamino)ethyl]-4H-pyrido[1,2-a]pyrimidin-4-one trifluoroacetic acid salt] | > 500 nM
10 | Cc1ccc(-c2c(C(C)Nc3ncnc4[nH]cnc34)nc3cccc(C)n3c2=O)cc1 (stereo not shown) [Example 64, 6-Methyl-3-(4-methylphenyl)-2-[1-(9H-purin-6-ylamino)ethyl]-4H-pyrido[1,2-a]pyrimidin-4-one trifluoroacetic acid salt] | < 50 nM
11 | Cc1csc2nc(C(C)Nc3ncnc4[nH]cnc34)c(-c3ccccc3F)c(=O)n12 (stereo not shown) [Example 40, 6-(2-fluorophenyl)-3-methyl-7-[1-(9H-purin-6-ylamino)ethyl]-5H-[1,3]thiazolo[3,2-a]pyrimidin-5-one trifluoroacetic acid salt] | < 50 nM
12 | Cc1cccc2nc(C(C)Nc3nc(N)nc4[nH]cnc34)c(-c3ccccc3Cl)c(=O)n12 (stereo not shown) [Example 58, 2-{1-[(2-Amino-9#-purin-6-yl)amino]ethyl}-3-(2-chlorophenyl)-6-methyl-4H-pyrido[1,2-a]pyrimidin-4-one trifluoroacetic acid salt] | < 50 nM
13 | Cc1cccc2nc(C(C)Nc3ncnc4[nH]cnc34)c(-c3ccc(C#N)cc3)c(=O)n12 (stereo not shown) [Example 61, 4-{6-Methyl-4-oxo-2-[1-(9H-purin-6-ylamino)ethyl]-4H-pyrido[1,2-a]pyrimidin-3-yl}benzonitrile trifluoroacetic acid salt] | > 500 nM
14 | Cc1cccc2nc(C(C)Nc3nc(N)nc4[nH]cnc34)c(-c3cccc(Cl)c3)c(=O)n12 (stereo not shown) [Example 54, 2-{1-[(2-Amino-9H-purin-6-yl)amino]ethyl}-3-(3-chlorophenyl)-6-methyl-4H-pyrido[1,2-a]pyrimidin-4-one trifluoroacetic acid salt] | < 50 nM
15 | Cc1csc2nc(C(C)Nc3ncnc4[nH]cnc34)c(-c3cc(F)cc(Cl)c3)c(=O)n12 (stereo not shown) [Example 37, 6-(3-chloro-5-fluorophenyl)-3-methyl-7-[1-(9H-purin-6-ylamino)ethyl]-5H-[1,3]thiazolo[3,2-a]pyrimidin-5-one trifluoroacetic acid salt] | 100 to 500 nM
16 | Cc1ccccc1-c1c(C(C)Nc2ncnc3[nH]cnc23)nc2cccc(C)n2c1=O (stereo not shown) [Example 63, 6-Methyl-3-(2-methylphenyl)-2-[1-(9H-purin-6-ylamino)ethyl]-4H-pyrido[1,2-a]pyrimidin-4-one trifluoroacetic acid salt] | 100 to 500 nM
17 | CC(Nc1ncnc2[nH]cnc12)c1nc2scc(C(F)(F)F)n2c(=O)c1-c1cccc(F)c1 (stereo not shown) [Example 48, 6-(3-Fluorophenyl)-7-[1-(9H-purin-6-ylamino)ethyl]-3-(trifluoromethyl)-5H-[1,3]thiazolo[3,2-a]pyrimidin-5-one] | 50 to 100 nM
18 | Cc1csc2nc(C(C)Nc3ncnc4[nH]cnc34)c(-c3cc(F)ccc3F)c(=O)n12 (stereo not shown) [Example 45, 6-(2,5-difluorophenyl)-3-methyl-7-[1-(9H-purin-6-ylamino)ethyl]-5H-[1,3]thiazolo[3,2-a]pyrimidin-5-one trifluoroacetic acid salt] | < 50 nM
19 | Cc1csc2nc([C@H](C)Nc3nc(O)nc4[nH]cnc34)c(-c3cccc(F)c3)c(=O)n12 [Example 47, 6-(3-Fluorophenyl)-7-{(1S)-1-[(2-hydroxy-9H-purin-6-yl)amino]ethyl}-3-methyl-5H-[1,3]thiazolo[3,2-a]pyrimidin-5-one] | 100 to 500 nM
20 | Cc1cccc2nc(C(C)Nc3nc(N)nc4[nH]cnc34)c(-c3ccc(C#N)cc3)c(=O)n12 (stereo not shown) [Example 62, 4-(2-{1-[(2-Amino-9H-purin-6-yl)amino]ethyl}-6-methyl-4-oxo-4H-pyrido[1,2-a]pyrimidin-3-yl)benzonitrile trifluoroacetic acid salt] | 100 to 500 nM
21 | Cc1csc2nc(C(C)Nc3ncnc4[nH]cnc34)c(-c3cccc(Cl)c3)c(=O)n12 (stereo not shown) [Example 36, 6-(3-chlorophenyl)-3-methyl-7-[1-(9H-purin-6-ylamino)ethyl]-5H-[1,3]thiazolo[3,2-a]pyrimidin-5-one trifluoroacetic acid salt] | 100 to 500 nM
22 | Cc1cccc2nc(C(C)Nc3ncnc4[nH]cnc34)c(-c3ccccc3F)c(=O)n12 (stereo not shown) [Example 59, 3-(2-Fluorophenyl)-6-methyl-2-[1-(9H-purin-6-ylamino)ethyl]-4H-pyrido[1,2-a]pyrimidin-4-one trifluoroacetic acid salt] | < 50 nM
23 | Cc1cccc2nc(C(C)Nc3ncnc4[nH]cnc34)c(-c3ccccc3Cl)c(=O)n12 (stereo not shown) [Example 57, 3-(2-Chlorophenyl)-6-methyl-2-[1-(9H-purin-6-ylamino)ethyl]-4H-pyrido[1,2-a]pyrimidin-4-one trifluoroacetic acid salt] | < 50 nM
24 | Cc1cccc2nc(C(C)Nc3ncnc4[nH]cnc34)c(-c3cccc(Cl)c3)c(=O)n12 (stereo not shown) [Example 53, 3-(3-Chlorophenyl)-6-methyl-2-[1-(9H-purin-6-ylamino)ethyl]-4H-pyrido[1,2-a]pyrimidin-4-one trifluoroacetic acid salt] | 100 to 500 nM
25 | CC(Nc1nc(N)nc2[nH]cnc12)c1nc2ccccn2c(=O)c1-c1cc(F)cc(F)c1 (stereo not shown) [Example 80, 2-{1-[(2-Amino-9H-purin-6-yl)amino]ethyl}-3-(3,5-difluorophenyl)-4H-pyrido[1,2-a]pyrimidin-4-one trifluoroacetic acid salt] | 100 to 500 nM
26 | Cc1cccc2nc(C(C)Nc3nc(N)nc4[nH]cnc34)c(-c3ccccc3)c(=O)n12 (stereo not shown) [Example 50, 2-{1-[(2-Amino-9H-purin-6-yl)amino]ethyl}-6-methyl-3-phenyl-4H-pyrido[1,2-a]pyrimidin-4-one trifluoroacetic acid salt] | < 50 nM
27 | Cc1cccc2nc(C(C)Nc3nc(N)nc4[nH]cnc34)c(-c3ccc(Cl)cc3)c(=O)n12 (stereo not shown) [Example 56, 2-{1-[(2-Amino-9H-purin-6-yl)amino]ethyl}-3-(4-chlorophenyl)-6-methyl-4H-pyrido[1,2-a]pyrimidin-4-one trifluoroacetic acid salt] | > 500 nM
28 | Cc1csc2nc(C(C)Nc3ncnc4[nH]cnc34)c(-c3nccs3)c(=O)n12 (stereo not shown) [Example 20, 3-methyl-7-[1-(9H-purin-6-ylamino)ethyl]-6-(1,3-thiazol-2-yl)-5H-[1,3]thiazolo[3,2-a]pyrimidin-5-one trifluoroacetic acid salt] | < 50 nM
